# From the supplement of paper PMC10307832
# How the values were obtained:
# Test in all cases: relative viability (nuclei count vs DMSO), 5 days (fraction); higher = more cells survive
# Seliciclib + Navitoclax = compound: CC[C@H](CO)Nc1nc(NCc2ccccc2)c2ncn(C(C)C)c2n1 [Seliciclib] + CC1(C)CCC(c2ccc(Cl)cc2)=C(CN2CCN(c3ccc(C(=O)NS(=O)(=O)c4ccc(N[C@H](CCN5CCOCC5)CSc5ccccc5)c(S(=O)(=O)C(F)(F)F)c4)cc3)CC2)C1 [Navitoclax] (partner 0.5 µM)
# Method in brief: (§1)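 Each reported value is a median over duplicate plates. It expresses relative viability: treated-well nuclei count divided by vehicle-well nuclei count. Lung cancer cell lines in 1536-well plates were dosed by pin tool a day after seeding, alone with one drug or with a fixed anchor-drug dose plus five library-drug doses (not always all listed) in √10 steps, and nuclei were counted after 5 days.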
# Seliciclib + Crizotinib = compound: CC[C@H](CO)Nc1nc(NCc2ccccc2)c2ncn(C(C)C)c2n1 [Seliciclib] + C[C@@H](Oc1cc(-c2cnn(C3CCNCC3)c2)cnc1N)c1c(Cl)ccc(F)c1Cl [Crizotinib] (partner 1 µM)
# Method in brief: as §1
# Seliciclib + Dasatinib = compound: CC[C@H](CO)Nc1nc(NCc2ccccc2)c2ncn(C(C)C)c2n1 [Seliciclib] + Cc1nc(Nc2ncc(C(=O)Nc3c(C)cccc3Cl)s2)cc(N2CCN(CCO)CC2)n1 [Dasatinib] (partner 0.075 µM)
# Method in brief: as §1
# Seliciclib + Vorinostat = compound: CC[C@H](CO)Nc1nc(NCc2ccccc2)c2ncn(C(C)C)c2n1 [Seliciclib] + O=C(CCCCCCC(=O)Nc1ccccc1)NO [Vorinostat] (partner 1 µM)
# Method in brief: as §1
cell line,measurement,setting,value
LU99A,relative viability,Seliciclib + Navitoclax; first compound 0.08 µM,0.9
same,relative viability,Seliciclib + Navitoclax; first compound 0.253 µM,0.671
same,relative viability,Seliciclib + Navitoclax; first compound 0.8 µM,0.69
same,relative viability,Seliciclib + Navitoclax; first compound 2.53 µM,0.759
same,relative viability,Seliciclib + Navitoclax; first compound 8 µM,0.711
same,relative viability,Seliciclib + Crizotinib; first compound 0.08 µM,0.477
same,relative viability,Seliciclib + Crizotinib; first compound 0.253 µM,0.544
same,relative viability,Seliciclib + Crizotinib; first compound 0.8 µM,0.52
same,relative viability,Seliciclib + Crizotinib; first compound 2.53 µM,0.422
same,relative viability,Seliciclib + Crizotinib; first compound 8 µM,0.4
same,relative viability,Seliciclib + Dasatinib; first compound 0.08 µM,0.611
same,relative viability,Seliciclib + Dasatinib; first compound 0.253 µM,0.521
same,relative viability,Seliciclib + Dasatinib; first compound 0.8 µM,0.588
same,relative viability,Seliciclib + Dasatinib; first compound 2.53 µM,0.262
same,relative viability,Seliciclib + Dasatinib; first compound 8 µM,0.507
same,relative viability,Seliciclib + Vorinostat; first compound 0.08 µM,0.538
same,relative viability,Seliciclib + Vorinostat; first compound 0.253 µM,0.383
same,relative viability,Seliciclib + Vorinostat; first compound 0.8 µM,0.458
same,relative viability,Seliciclib + Vorinostat; first compound 2.53 µM,0.383
same,relative viability,Seliciclib + Vorinostat; first compound 8 µM,0.455
NCI-H1395,relative viability,Seliciclib + Navitoclax; first compound 0.08 µM,1.12
same,relative viability,Seliciclib + Navitoclax; first compound 0.253 µM,0.936
same,relative viability,Seliciclib + Navitoclax; first compound 0.8 µM,1.31
same,relative viability,Seliciclib + Navitoclax; first compound 2.53 µM,1.08
same,relative viability,Seliciclib + Navitoclax; first compound 8 µM,1.06
same,relative viability,Seliciclib + Dasatinib; first compound 0.08 µM,0.464
same,relative viability,Seliciclib + Dasatinib; first compound 0.253 µM,0.406
same,relative viability,Seliciclib + Dasatinib; first compound 0.8 µM,0.428
same,relative viability,Seliciclib + Dasatinib; first compound 2.53 µM,0.361
same,relative viability,Seliciclib + Dasatinib; first compound 8 µM,0.368
same,relative viability,Seliciclib + Vorinostat; first compound 0.08 µM,0.83
same,relative viability,Seliciclib + Vorinostat; first compound 0.253 µM,0.597
same,relative viability,Seliciclib + Vorinostat; first compound 0.8 µM,0.702
same,relative viability,Seliciclib + Vorinostat; first compound 8 µM,0.631
NCI-H460,relative viability,Seliciclib + Navitoclax; first compound 0.08 µM,1.1
same,relative viability,Seliciclib + Navitoclax; first compound 0.253 µM,1.13
same,relative viability,Seliciclib + Navitoclax; first compound 0.8 µM,1.03
same,relative viability,Seliciclib + Navitoclax; first compound 2.53 µM,1.1
same,relative viability,Seliciclib + Navitoclax; first compound 8 µM,0.801
same,relative viability,Seliciclib + Crizotinib; first compound 0.08 µM,0.787
same,relative viability,Seliciclib + Crizotinib; first compound 0.253 µM,0.821
same,relative viability,Seliciclib + Crizotinib; first compound 0.8 µM,0.837
same,relative viability,Seliciclib + Crizotinib; first compound 2.53 µM,1.36
same,relative viability,Seliciclib + Crizotinib; first compound 8 µM,0.722
same,relative viability,Seliciclib + Dasatinib; first compound 0.08 µM,0.524
same,relative viability,Seliciclib + Dasatinib; first compound 0.253 µM,0.391
same,relative viability,Seliciclib + Dasatinib; first compound 0.8 µM,0.357
same,relative viability,Seliciclib + Dasatinib; first compound 2.53 µM,0.288
same,relative viability,Seliciclib + Dasatinib; first compound 8 µM,0.363
same,relative viability,Seliciclib + Vorinostat; first compound 0.08 µM,0.709
same,relative viability,Seliciclib + Vorinostat; first compound 0.253 µM,0.809
same,relative viability,Seliciclib + Vorinostat; first compound 0.8 µM,0.671
same,relative viability,Seliciclib + Vorinostat; first compound 2.53 µM,0.901
same,relative viability,Seliciclib + Vorinostat; first compound 8 µM,0.552
201T,relative viability,Seliciclib + Navitoclax; first compound 0.08 µM,1.18
same,relative viability,Seliciclib + Navitoclax; first compound 0.253 µM,1.17
same,relative viability,Seliciclib + Navitoclax; first compound 0.8 µM,1.2
same,relative viability,Seliciclib + Navitoclax; first compound 2.53 µM,1.2
same,relative viability,Seliciclib + Navitoclax; first compound 8 µM,1.13
same,relative viability,Seliciclib + Crizotinib; first compound 0.08 µM,1.04
same,relative viability,Seliciclib + Crizotinib; first compound 0.253 µM,0.996
same,relative viability,Seliciclib + Crizotinib; first compound 0.8 µM,1.04
same,relative viability,Seliciclib + Crizotinib; first compound 2.53 µM,1.02
same,relative viability,Seliciclib + Crizotinib; first compound 8 µM,0.95
same,relative viability,Seliciclib + Dasatinib; first compound 0.08 µM,0.502
same,relative viability,Seliciclib + Dasatinib; first compound 0.253 µM,0.654
same,relative viability,Seliciclib + Dasatinib; first compound 0.8 µM,0.589
same,relative viability,Seliciclib + Dasatinib; first compound 2.53 µM,0.385
same,relative viability,Seliciclib + Dasatinib; first compound 8 µM,0.548
same,relative viability,Seliciclib + Vorinostat; first compound 0.08 µM,0.967
same,relative viability,Seliciclib + Vorinostat; first compound 0.253 µM,1.07
same,relative viability,Seliciclib + Vorinostat; first compound 0.8 µM,0.904
same,relative viability,Seliciclib + Vorinostat; first compound 2.53 µM,0.637
same,relative viability,Seliciclib + Vorinostat; first compound 8 µM,0.906
NCI-H1648,relative viability,Seliciclib + Vorinostat; first compound 0.08 µM,0.519
same,relative viability,Seliciclib + Vorinostat; first compound 0.253 µM,0.909
same,relative viability,Seliciclib + Vorinostat; first compound 0.8 µM,0.417
same,relative viability,Seliciclib + Vorinostat; first compound 2.53 µM,0.365
same,relative viability,Seliciclib + Vorinostat; first compound 8 µM,0.373
NCI-H2405,relative viability,Seliciclib + Navitoclax; first compound 0.08 µM,0.666
same,relative viability,Seliciclib + Navitoclax; first compound 0.253 µM,0.71
same,relative viability,Seliciclib + Navitoclax; first compound 0.8 µM,0.754
same,relative viability,Seliciclib + Navitoclax; first compound 2.53 µM,0.717
same,relative viability,Seliciclib + Navitoclax; first compound 8 µM,0.631
same,relative viability,Seliciclib + Crizotinib; first compound 0.08 µM,0.755
same,relative viability,Seliciclib + Crizotinib; first compound 0.253 µM,0.841
same,relative viability,Seliciclib + Crizotinib; first compound 0.8 µM,0.807
same,relative viability,Seliciclib + Crizotinib; first compound 2.53 µM,0.877
same,relative viability,Seliciclib + Crizotinib; first compound 8 µM,0.794
same,relative viability,Seliciclib + Dasatinib; first compound 0.08 µM,0.211
same,relative viability,Seliciclib + Dasatinib; first compound 0.253 µM,0.219
same,relative viability,Seliciclib + Dasatinib; first compound 0.8 µM,0.197
same,relative viability,Seliciclib + Dasatinib; first compound 2.53 µM,0.171
same,relative viability,Seliciclib + Dasatinib; first compound 8 µM,0.212
same,relative viability,Seliciclib + Vorinostat; first compound 0.08 µM,1.06
same,relative viability,Seliciclib + Vorinostat; first compound 0.253 µM,1.2
same,relative viability,Seliciclib + Vorinostat; first compound 0.8 µM,0.98
same,relative viability,Seliciclib + Vorinostat; first compound 2.53 µM,0.742
same,relative viability,Seliciclib + Vorinostat; first compound 8 µM,0.739
NCI-H1703,relative viability,Seliciclib + Navitoclax; first compound 0.08 µM,0.957
same,relative viability,Seliciclib + Navitoclax; first compound 0.253 µM,0.862
same,relative viability,Seliciclib + Navitoclax; first compound 0.8 µM,1.05
same,relative viability,Seliciclib + Navitoclax; first compound 2.53 µM,1.21
same,relative viability,Seliciclib + Navitoclax; first compound 8 µM,0.87
same,relative viability,Seliciclib + Crizotinib; first compound 0.08 µM,0.643
same,relative viability,Seliciclib + Crizotinib; first compound 0.253 µM,0.609
same,relative viability,Seliciclib + Crizotinib; first compound 0.8 µM,0.563
same,relative viability,Seliciclib + Crizotinib; first compound 2.53 µM,0.635
same,relative viability,Seliciclib + Crizotinib; first compound 8 µM,0.556
NCI-H1755,relative viability,Seliciclib + Navitoclax; first compound 0.08 µM,0.984
same,relative viability,Seliciclib + Navitoclax; first compound 0.253 µM,0.997
same,relative viability,Seliciclib + Navitoclax; first compound 0.8 µM,0.998
same,relative viability,Seliciclib + Navitoclax; first compound 2.53 µM,1.04
same,relative viability,Seliciclib + Navitoclax; first compound 8 µM,0.871
same,relative viability,Seliciclib + Crizotinib; first compound 0.08 µM,0.84
same,relative viability,Seliciclib + Crizotinib; first compound 0.253 µM,0.85
same,relative viability,Seliciclib + Crizotinib; first compound 0.8 µM,0.84
same,relative viability,Seliciclib + Crizotinib; first compound 2.53 µM,0.973
same,relative viability,Seliciclib + Crizotinib; first compound 8 µM,0.854
same,relative viability,Seliciclib + Dasatinib; first compound 0.08 µM,0.423
same,relative viability,Seliciclib + Dasatinib; first compound 0.253 µM,0.404
same,relative viability,Seliciclib + Dasatinib; first compound 0.8 µM,0.429
same,relative viability,Seliciclib + Dasatinib; first compound 2.53 µM,0.26
same,relative viability,Seliciclib + Dasatinib; first compound 8 µM,0.404
same,relative viability,Seliciclib + Vorinostat; first compound 0.08 µM,0.654
same,relative viability,Seliciclib + Vorinostat; first compound 0.253 µM,0.748
same,relative viability,Seliciclib + Vorinostat; first compound 0.8 µM,0.696
same,relative viability,Seliciclib + Vorinostat; first compound 2.53 µM,0.692
same,relative viability,Seliciclib + Vorinostat; first compound 8 µM,0.637
NCI-H2087,relative viability,Seliciclib + Navitoclax; first compound 0.08 µM,0.914
same,relative viability,Seliciclib + Navitoclax; first compound 0.253 µM,0.879
same,relative viability,Seliciclib + Navitoclax; first compound 0.8 µM,0.991
same,relative viability,Seliciclib + Navitoclax; first compound 2.53 µM,0.879
same,relative viability,Seliciclib + Navitoclax; first compound 8 µM,0.696
same,relative viability,Seliciclib + Crizotinib; first compound 0.08 µM,0.909
same,relative viability,Seliciclib + Crizotinib; first compound 0.253 µM,0.833
same,relative viability,Seliciclib + Crizotinib; first compound 0.8 µM,0.956
same,relative viability,Seliciclib + Crizotinib; first compound 2.53 µM,0.828
same,relative viability,Seliciclib + Crizotinib; first compound 8 µM,0.846
same,relative viability,Seliciclib + Dasatinib; first compound 0.08 µM,0.874
same,relative viability,Seliciclib + Dasatinib; first compound 0.253 µM,1.07
same,relative viability,Seliciclib + Dasatinib; first compound 0.8 µM,0.898
same,relative viability,Seliciclib + Dasatinib; first compound 2.53 µM,0.704
same,relative viability,Seliciclib + Dasatinib; first compound 8 µM,0.754
same,relative viability,Seliciclib + Vorinostat; first compound 0.08 µM,0.802
same,relative viability,Seliciclib + Vorinostat; first compound 0.253 µM,0.677
same,relative viability,Seliciclib + Vorinostat; first compound 0.8 µM,0.686
same,relative viability,Seliciclib + Vorinostat; first compound 2.53 µM,0.725
same,relative viability,Seliciclib + Vorinostat; first compound 8 µM,0.314
NCI-H2228,relative viability,Seliciclib + Navitoclax; first compound 0.08 µM,0.562
same,relative viability,Seliciclib + Navitoclax; first compound 0.253 µM,0.447
same,relative viability,Seliciclib + Navitoclax; first compound 0.8 µM,0.913
same,relative viability,Seliciclib + Navitoclax; first compound 2.53 µM,0.735
same,relative viability,Seliciclib + Navitoclax; first compound 8 µM,0.653
same,relative viability,Seliciclib + Crizotinib; first compound 0.08 µM,0.505
same,relative viability,Seliciclib + Crizotinib; first compound 0.253 µM,0.414
same,relative viability,Seliciclib + Crizotinib; first compound 0.8 µM,0.383
same,relative viability,Seliciclib + Crizotinib; first compound 2.53 µM,0.672
same,relative viability,Seliciclib + Crizotinib; first compound 8 µM,0.396
same,relative viability,Seliciclib + Dasatinib; first compound 0.08 µM,0.581
same,relative viability,Seliciclib + Dasatinib; first compound 0.253 µM,0.488
same,relative viability,Seliciclib + Dasatinib; first compound 0.8 µM,0.481
same,relative viability,Seliciclib + Dasatinib; first compound 2.53 µM,0.514
same,relative viability,Seliciclib + Dasatinib; first compound 8 µM,0.368
same,relative viability,Seliciclib + Vorinostat; first compound 0.08 µM,0.585
same,relative viability,Seliciclib + Vorinostat; first compound 0.253 µM,0.521
same,relative viability,Seliciclib + Vorinostat; first compound 0.8 µM,0.58
same,relative viability,Seliciclib + Vorinostat; first compound 2.53 µM,0.586
same,relative viability,Seliciclib + Vorinostat; first compound 8 µM,0.335
